# According to PubChem BioAssay AID248 (DTP/NCI, 2004):
# Values joined by “and” are separate entries in the source; they are usually repeats but may differ in a detail not shown here. Equal entries are not always repeated. Toxic doses and inconclusive results are not listed.
# Tested on: L1210 leukemia ip in BDF1 mice, survival T/C
# Assay: NCI In Vivo Anticancer Drug Screen. Data for tumor model L1210 Leukemia (intraperitoneal) in B6D2F1 (BDF1) mice
# Details: endpoint: mean survival time, higher = longer survival
# Procedure, shortened: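 Tumor cells were implanted, animals were treated, and survival was followed. The result divides the treated measurement by the vehicle-control measurement.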
# [1] = dose: 100.0 mg/kg/injection, schedule: Q04DX003 (ip), vehicle: Klucel (hydroxypropylcellulose) (HPC)
# [2] = dose: 200.0 mg/kg/injection, schedule: Q04DX003 (ip), vehicle: Klucel (hydroxypropylcellulose) (HPC)
# [3] = dose: 400.0 mg/kg/injection, schedule: Q04DX003 (ip), vehicle: Klucel (hydroxypropylcellulose) (HPC)
# [4] = dose: 100.0 mg/kg/injection, schedule: Q01DX009 (ip), vehicle: Klucel (hydroxypropylcellulose) (HPC)
# [5] = dose: 200.0 mg/kg/injection, schedule: Q01DX009 (ip), vehicle: Klucel (hydroxypropylcellulose) (HPC)
# [6] = dose: 400.0 mg/kg/injection, schedule: Q01DX009 (ip), vehicle: Klucel (hydroxypropylcellulose) (HPC)
# [7] = dose: 100.0 mg/kg/injection, schedule: Q04DX002 (ip), vehicle: Klucel (hydroxypropylcellulose) (HPC)
# [8] = dose: 200.0 mg/kg/injection, schedule: Q04DX002 (ip), vehicle: Klucel (hydroxypropylcellulose) (HPC)
# [9] = dose: 400.0 mg/kg/injection, schedule: Q04DX002 (ip), vehicle: Klucel (hydroxypropylcellulose) (HPC)
# [10] = dose: 100.0 mg/kg/injection, schedule: Q04DX002 (ip), vehicle: saline
# [11] = dose: 200.0 mg/kg/injection, schedule: Q04DX002 (ip), vehicle: saline
# [12] = dose: 50.0 mg/kg/injection, schedule: Q01DX009 (ip), vehicle: saline
# [13] = dose: 100.0 mg/kg/injection, schedule: Q01DX009 (ip), vehicle: saline
# [14] = dose: 200.0 mg/kg/injection, schedule: Q01DX009 (ip), vehicle: saline
# [15] = dose: 100.0 mg/kg/injection, schedule: Q01DX001 (ip), vehicle: Klucel (hydroxypropylcellulose) (HPC)
# [16] = dose: 200.0 mg/kg/injection, schedule: Q01DX001 (ip), vehicle: Klucel (hydroxypropylcellulose) (HPC)
# [17] = dose: 50.0 mg/kg/injection, schedule: Q01DX009 (ip), vehicle: Klucel (hydroxypropylcellulose) (HPC)
# [18] = dose: 100.0 mg/kg/injection, schedule: Q04DX002 (ip), vehicle: saline with Tween-80
# [19] = dose: 200.0 mg/kg/injection, schedule: Q04DX002 (ip), vehicle: saline with Tween-80
# [20] = dose: 50.0 mg/kg/injection, schedule: Q04DX002 (ip), vehicle: saline with Tween-80
smiles,measurement,setting,value
S=C1NC(c2ccco2)N2C(=S)NC(c3ccco3)N12 (configuration not stated),T/C,"dose: 100.0 mg/kg/injection, schedule: Q01DX009 (ip), vehicle: gum acacia",90 % of control
same,T/C,"dose: 100.0 mg/kg/injection, schedule: Q04DX003 (ip), vehicle: gum acacia",97 % of control
same,T/C,"dose: 200.0 mg/kg/injection, schedule: Q01DX009 (ip), vehicle: gum acacia",95 % of control
same,T/C,"dose: 200.0 mg/kg/injection, schedule: Q04DX003 (ip), vehicle: gum acacia",103 % of control
same,T/C,"dose: 400.0 mg/kg/injection, schedule: Q01DX009 (ip), vehicle: gum acacia",95 % of control
same,T/C,"dose: 400.0 mg/kg/injection, schedule: Q04DX003 (ip), vehicle: gum acacia",98 % of control
Cc1cc(=O)[nH]n1-c1ccc([N+](=O)[O-])cc1,T/C,[1],94 % of control
same,T/C,[2],97 % of control
same,T/C,[3],89 % of control
O=C(Nc1ccc(N=Nc2ccccc2)cc1)C(F)(F)F,T/C,"dose: 100.0 mg/kg/injection, schedule: Q01DX001 (ip), vehicle: saline",102 % of control
same,T/C,"dose: 200.0 mg/kg/injection, schedule: Q01DX001 (ip), vehicle: saline",109 % of control
same,T/C,"dose: 400.0 mg/kg/injection, schedule: Q01DX001 (ip), vehicle: saline",93 % of control
CC(C)CC(NC(=O)C1(N)C2CC3CC(C2)CC1C3)C(=O)O (configuration not stated),T/C,"dose: 22.5 mg/kg/injection, schedule: Q01DX009 (ip), vehicle: Klucel (hydroxypropylcellulose) (HPC)",100 % of control
same,T/C,"dose: 45.0 mg/kg/injection, schedule: Q01DX009 (ip), vehicle: Klucel (hydroxypropylcellulose) (HPC)",103 % of control
same,T/C,"dose: 90.0 mg/kg/injection, schedule: Q01DX009 (ip), vehicle: Klucel (hydroxypropylcellulose) (HPC)",97 % of control
same,T/C,[4],108 % of control
same,T/C,[5],107 % of control
same,T/C,[6],100 % of control
OC1COC(CCl)OC1C1OC(CCl)OCC1O (configuration not stated),T/C,[7],96 % of control
same,T/C,[8],96 % of control
same,T/C,[9],96 % of control
COC(=O)COc1ccc(Cl)cc1Cl,T/C,[10],100 % of control
same,T/C,[11],107 % of control
same,T/C,"dose: 400.0 mg/kg/injection, schedule: Q04DX002 (ip), vehicle: saline",100 % of control
S=c1c2ccccc2sn1-c1ccccc1,T/C,"dose: 100.0 mg/kg/injection, schedule: Q01DX001 (ip), vehicle: carboxymethylcellulose (CMC)",92 % of control
same,T/C,"dose: 200.0 mg/kg/injection, schedule: Q01DX001 (ip), vehicle: carboxymethylcellulose (CMC)",94 % of control
same,T/C,"dose: 400.0 mg/kg/injection, schedule: Q01DX001 (ip), vehicle: carboxymethylcellulose (CMC)",87 % of control
CSCCC(NC(C)=O)C(=O)NNC(C)C (configuration not stated),T/C,"dose: 25.0 mg/kg/injection, schedule: Q01DX009 (ip), vehicle: saline",101 % of control
same,T/C,[12],92 % of control
same,T/C,[13],92 % of control
same,T/C,[14],95 % of control
same,T/C,"dose: 400.0 mg/kg/injection, schedule: Q01DX009 (ip), vehicle: saline",93 % of control
N#CCCCCC(=O)c1ccc(O)cc1O,T/C,"dose: 50.0 mg/kg/injection, schedule: Q01DX001 (ip), vehicle: Klucel (hydroxypropylcellulose) (HPC)",97 % of control
same,T/C,[15],105 % of control
same,T/C,[16],101 % of control
CC1=CC(=O)C2COc3c2c1cc1c(C)cc(=O)n(C)c31 (configuration not stated),T/C,"dose: 50.0 mg/kg/injection, schedule: Q04DX003 (ip), vehicle: Klucel (hydroxypropylcellulose) (HPC)",97 % of control
same,T/C,[15],95 % of control
same,T/C,[1],113 % of control
same,T/C,[16],95 % of control
same,T/C,[2],97 % of control
same,T/C,"dose: 400.0 mg/kg/injection, schedule: Q01DX001 (ip), vehicle: Klucel (hydroxypropylcellulose) (HPC)",97 % of control
COC(=O)c1ccc(C(=O)OC)nc1,T/C,"dose: 50.0 mg/kg/injection, schedule: Q04DX002 (ip), vehicle: Klucel (hydroxypropylcellulose) (HPC)",106 % of control
same,T/C,[7],95 % of control
same,T/C,[8],103 % of control
CCCCCCCC(=O)CCCC,T/C,[4],101 % of control
same,T/C,[1],103 % of control
same,T/C,[5],98 % of control
same,T/C,[2],101 % of control
same,T/C,[6],102 % of control
same,T/C,[3],101 % of control
Nc1ccc(S(=O)(=O)Nc2cnc3ccccc3n2)cc1,T/C,[12],99 % of control
same,T/C,[13],92 % of control
same,T/C,[10],91 % of control
same,T/C,[14],89 % of control
same,T/C,[11],94 % of control
COc1cccc(/C=N/NC(=O)c2ccncc2)c1OC,T/C,"dose: 25.0 mg/kg/injection, schedule: Q01DX009 (ip), vehicle: Klucel (hydroxypropylcellulose) (HPC)",97 % of control
same,T/C,[17],101 % of control
same,T/C,[4],92 % of control and 105 % of control
Cc1c(C(=O)O)cc2n(c1=O)Cc1cc3ccccc3nc1-2,T/C,[13],90 % of control
same,T/C,"dose: 100.0 mg/kg/injection, schedule: Q04DX003 (ip), vehicle: saline",95 % of control
same,T/C,[14],86 % of control
same,T/C,"dose: 200.0 mg/kg/injection, schedule: Q04DX003 (ip), vehicle: saline",106 % of control
same,T/C,"dose: 400.0 mg/kg/injection, schedule: Q04DX003 (ip), vehicle: saline",98 % of control
O=C(Nc1ccc(C(=O)O)cc1)Nc1ccccc1F,T/C,[17],93 % of control
same,T/C,[4],104 % of control
O=C1OCC/C1=C/OCCCCCCCCCCO/C=C1\CCOC1=O,T/C,[7],91 % of control
same,T/C,[8],91 % of control
same,T/C,[9],94 % of control
ClCCCN1CCCCC1CCl (configuration not stated),T/C,"dose: 3.12 mg/kg/injection, schedule: Q01DX009 (ip), vehicle: saline",114 % of control
same,T/C,"dose: 6.25 mg/kg/injection, schedule: Q01DX009 (ip), vehicle: saline",114 % of control
same,T/C,"dose: 6.25 mg/kg/injection, schedule: Q04DX003 (ip), vehicle: saline",111 % of control
same,T/C,"dose: 12.5 mg/kg/injection, schedule: Q04DX003 (ip), vehicle: saline",111 % of control
same,T/C,"dose: 25.0 mg/kg/injection, schedule: Q04DX003 (ip), vehicle: saline",150 % of control
COc1ccc(C(C)CO)cc1 (configuration not stated),T/C,"dose: 50.0 mg/kg/injection, schedule: Q01DX009 (ip), vehicle: saline with Tween-80",102 % of control
same,T/C,"dose: 100.0 mg/kg/injection, schedule: Q01DX009 (ip), vehicle: saline with Tween-80",94 % of control
same,T/C,"dose: 200.0 mg/kg/injection, schedule: Q01DX009 (ip), vehicle: saline with Tween-80",102 % of control
C(=C(CC1CCC1)CC1CCC1)C1CCC1,T/C,[18],96 % of control
same,T/C,[19],90 % of control
Cc1nc2c(C(N)=O)nc(C)n2nc1C,T/C,[20],93 % of control
same,T/C,"dose: 100.0 mg/kg/injection, schedule: Q01DX001 (ip), vehicle: saline with Tween-80",103 % of control
same,T/C,[18],105 % of control and 107 % of control
same,T/C,"dose: 200.0 mg/kg/injection, schedule: Q01DX001 (ip), vehicle: saline with Tween-80",106 % of control
same,T/C,[19],121 % of control
same,T/C,"dose: 400.0 mg/kg/injection, schedule: Q01DX001 (ip), vehicle: saline with Tween-80",111 % of control
same,T/C,"dose: 400.0 mg/kg/injection, schedule: Q04DX002 (ip), vehicle: saline with Tween-80",99 % of control
same,T/C,"dose: 600.0 mg/kg/injection, schedule: Q01DX001 (ip), vehicle: saline with Tween-80",110 % of control
COc1cc2c(cc1OC)C(CC(C)C)=[N+](C)CC2,T/C,"dose: 25.0 mg/kg/injection, schedule: Q04DX002 (ip), vehicle: saline with Tween-80",93 % of control
same,T/C,[20],93 % of control
same,T/C,[18],93 % of control
CC[N+](CC)(CC)CCCCCCCCCC[N+](CC)(CC)CC,T/C,"dose: 0.19 mg/kg/injection, schedule: Q01DX009 (ip), vehicle: water",100 % of control
same,T/C,"dose: 0.39 mg/kg/injection, schedule: Q01DX009 (ip), vehicle: water",95 % of control
same,T/C,"dose: 0.78 mg/kg/injection, schedule: Q01DX009 (ip), vehicle: water",90 % of control
same,T/C,"dose: 0.78 mg/kg/injection, schedule: Q04DX003 (ip), vehicle: saline",103 % of control
Oc1ccc(CCNCc2cc3c(cc2Br)OCO3)cc1,T/C,[17],101 % of control
same,T/C,[4],96 % of control
same,T/C,[5],108 % of control
O=C(NCc1ccccc1)Nc1ccccc1F,T/C,[4],110 % of control
same,T/C,[5],110 % of control
same,T/C,[6],104 % of control
Cc1cccc(OC(=O)Nc2cccc3ccccc23)c1,T/C,[4],93 % of control
same,T/C,[5],87 % of control
same,T/C,[6],96 % of control
